This is an account of results in patent publication US20230192617A1, “AZABICYCLIC(THIO)AMIDES AS FUNGICIDAL COMPOUNDS” (Bayer CropScience Aktiengesellschaft, priority 2020, published 2023).

Data set [1] in a line: Measurement of Log P values by HPLC on reversed phase columns (EEC directive 79/831 Annex V.A8). It is filed as physicochemical. The conditions noted are these: method [a]: LC-UV, acidic range, 0.1% formic acid in water and acetonitrile as eluent; for chromatographic logP: reversed phase HPLC column. In short, it runs like this:
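Reversed-phase HPLC with UV detection per EEC 79/831 Annex V.A8, linear 10–95% acetonitrile gradient. Aqueous eluent: 0.1% formic acid (acidic), 0.001 M ammonium acetate (neutral), or 0.1% phosphoric acid (acidic); multiple values in one method joined by "+".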

The subject of data set [2] is Alternaria brassicae. As to the kind of experiment: In vivo preventive test on Alternaria brassicae (leaf spot on radish or cabbage). As to conditions: 500 ppm of active ingredient, preventive spray on radish or cabbage, evaluated 3 to 4 days after inoculation, read-out: efficacy. In short, it runs like this:
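Young radish or cabbage plants were sprayed with compound dissolved in DMSO/acetone/Tween 80 and diluted in water; controls received solvent only. Inoculation by spraying A. brassicae spore suspension 24 h later, then 3–4 days at 20 °C and 100% relative humidity.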

Data set [3] has as its system Botrytis cinerea. Nature of the data set: In vivo preventive test on Botrytis cinerea (grey mould). The conditions noted are these: 500 ppm of active ingredient, preventive spray on gherkin or cabbage, evaluated 4 to 5 days after inoculation, read-out: efficacy. In short, it runs like this: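 Young gherkin or cabbage plants were sprayed with compound in DMSO/acetone/Tween 80 diluted in water, then inoculated 24 hours later with a B. cinerea spore suspension. Incubation lasted 4 to 5 days: gherkin at 17° C., 90% relative humidity; cabbage at 20° C., 100% relative humidity.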

Data set [4] deals with Botrytis cinerea. As to the kind of experiment: B-11. Botrytis cinerea in vitro cell test. The conditions noted are these: 144 h, 20 ppm of active ingredient, 6 days incubation, liquid culture, absorbance, read-out: efficacy (inhibition of fungal growth). It is filed as cell-based. The method, then:
(§1) B-11. Botrytis cinerea In Vitro Cell Test [table] Fungicides were solubilized in DMSO and the solution used to prepare the required range of concentrations. The final concentration of DMSO used in the assay was ≤1%. A spore suspension of B. cinerea was prepared and diluted to the desired spore density. Fungicides were evaluated for their ability to inhibit spore germination and mycelium growth in liquid culture assay. The compounds were added in the desired concentration to the culture medium with spores. After 6 days incubation, fungi-toxicity of compounds was determined by spectrometric measurement of mycelium growth. Inhibition of fungal growth was determined by comparing the absorbance values in wells containing the fungicides with the absorbance in control wells without fungicides.

Data set [5] deals with Pyrenophora teres. As to the kind of experiment: B-10. Pyrenophora teres in vitro cell test. It is filed as cell-based. The conditions noted are these: 144 h, 20 ppm of active ingredient, 6 days incubation, liquid culture, absorbance, read-out: efficacy (inhibition of fungal growth). The method, then: as §1, with “B-10. Pyrenophora teres” for “B-11. Botrytis cinerea”, “P. teres” for “B. cinerea”

Data set [6] deals with Colletotrichum lindemuthianum. As to the kind of experiment: B-8. Colletotrichum lindemuthianum in vitro cell test. Type of data set: cell-based. The conditions noted are these: 144 h, 20 ppm of active ingredient, 6 days incubation, liquid culture, absorbance, read-out: efficacy (inhibition of fungal growth). In outline: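 Spore suspension of C. lindemuthianum in liquid medium exposed to DMSO-solubilized compounds (final DMSO ≤1%) for 6 days. Mycelial growth read by absorbance, with inhibition calculated relative to compound-free control wells.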

Data set [7] deals with Sphaerotheca fuliginea. Nature of the data set: In vivo preventive test on Sphaerotheca fuliginea (powdery mildew on cucurbits). The conditions noted are these: Podosphaera fuliginea, 192 h; 500 ppm of active ingredient; preventive spray on gherkin; evaluated 8 days after inoculation; read-out: efficacy. How it is done: B-4. in vivo preventive test on Sphaerotheca fuliginea (powdery mildew on cucurbits) [table] The active ingredients were made soluble and homogenized in a mixture of Dimethyl sulfoxide/Acetone/Tween® 80 and then diluted in water to the desired concentration. The young plants of gherkin were treated by spraying the active ingredient prepared as described above. Control plants were treated only with an aqueous solution of Acetone/Dimethyl sulfoxide/Tween® 80. After 24 hours, the plants were contaminated by spraying the leaves with an aqueous suspension of Sphaerotheca fuliginea spores. The contaminated gherkin plants were incubated for 8 days at 20° C. and at 70-80% relative humidity.

The subject of data set [8] is Alternaria alternata. Nature of the data set: Alternaria alternata in vitro cell test. Type of data set: cell-based. As to conditions: 120 h, 20 ppm of active ingredient, liquid culture, 5 days incubation, spectrometric measurement of mycelium growth, read-out: efficacy (inhibition of fungal growth). In short, it runs like this: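 Liquid culture assay in which A. alternata spores in medium received DMSO-solubilized compound (final DMSO ≤1%). After 5 days, mycelium growth was measured spectrometrically. Inhibition was calculated against fungicide-free control wells.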

SMILES strings stand for the structures.

By LogP is commonly meant the decadic logarithm of the partition coefficient of the neutral form, usually between octanol and water. A higher LogP goes with higher lipophilicity. As a reminder, the chromatographic logP is lipophilicity estimated from chromatographic retention. A high value points to higher lipophilicity. As a reminder, the inhibition is the relative decrease from the control value, in per cent. In turn, `COc1ccc2c(c1)[C@@H](NC(=O)c1c(Oc3cccc(C(F)(F)F)c3)nnc3ccccc13)[C@@H](OC)CC2` (mixture of isomers) [I-180] showed a LogP in data set [1] of 4.02. This molecule also returned a chromatographic logP in data set [1] of 3.78. Moreover, the pest or weed control at 500 ppm lay in the range of 90 to 100% in data set [2] and 80 to 89% in data set [3]. The inhibition at 20 ppm in data set [4], in data set [5] and in data set [6] was 90 to 100% in each case.
Regarding `Cc1ccc(C(F)(F)CNC(=S)c2c(Oc3cccc(C(F)(F)F)c3)cnc3ccccc23)c(C)c1` [I-159], the chromatographic logP in data set [1] was determined as 5.17. In data set [7], the pest or weed control at 500 ppm was in the range of 90 to 100%. Further, the inhibition at 20 ppm in data set [6] is 70 to 79%.
In data set [1], `Cn1cc(-c2ccc(C(F)(F)CNC(=O)c3c(Oc4cccc(C(F)(F)F)c4)nnc4ccccc34)c(Cl)c2)cn1` [I-065] yielded a chromatographic logP of 3.71. For the same molecule, the pest or weed control at 500 ppm in data set [2] and in data set [3] was 90 to 100% in each case. For the same molecule, the inhibition at 20 ppm in data set [8] lay within 70 to 79%; in data set [4] it was 90 to 100%; in data set [5], 90 to 100%.
In data set [1], `Cc1scc(CCNC(=O)c2c(Oc3cccc(C(F)(F)F)c3)nnc3ccccc23)c1C` [I-093] registered a chromatographic logP of 4.11. In addition, the pest or weed control at 500 ppm in data set [2] and in data set [3] was 90 to 100% in each case. Also, the inhibition at 20 ppm in data set [8] was 70 to 79%; in data set [4], 90 to 100%; in data set [5], 90 to 100%; in data set [6], 90 to 100%.
As to `C[C@@H]1CC[C@H](NC(=O)c2c(Oc3cccc(C(F)(F)F)c3)nnc3ccccc23)c2ccccc21` (mixture of isomers) [I-079], the chromatographic logP in data set [1] came to 4.42. Also, the pest or weed control at 500 ppm in data set [2] and in data set [3] was 90 to 100% in each case. Further, the inhibition at 20 ppm in data set [4], in data set [5] and in data set [6] was 90 to 100% throughout.
`COCc1ccc(C(F)(F)CNC(=O)c2c(Oc3cccc(C(F)(F)F)c3)nnc3ccccc23)c(Cl)c1` [I-074]: the chromatographic logP in data set [1] was 4.12. Moreover, the pest or weed control at 500 ppm in data set [2] and in data set [3] was 90 to 100% each time. In addition, the inhibition at 20 ppm in data set [8], in data set [4], in data set [5] and in data set [6] was 90 to 100% throughout.
In data set [1], `Cc1ccc(C(F)(F)CNC(=O)c2c(Oc3cccc(Cl)c3F)cnc3nccnc23)c(C)c1` [I-100] had a chromatographic logP of 3.38. Moreover, the pest or weed control at 500 ppm in data set [2] and in data set [3] was 90 to 100% each time. The inhibition at 20 ppm in data set [8], in data set [4], in data set [5] and in data set [6] was 90 to 100% in each case.
`Cc1ccc2c(c1)[C@@H](NC(=O)c1c(Oc3cccc(C(F)(F)F)c3)nnc3ccccc13)COC2` (racemic) [I-083] registered a chromatographic logP in data set [1] of 3.73. The pest or weed control at 500 ppm in data set [2] and in data set [3] was 90 to 100% in each case. Further, the inhibition at 20 ppm is 80 to 89% in data set [8], 90 to 100% in data set [4], 90 to 100% in data set [5] and 90 to 100% in data set [6].
For `Cc1ccc(C(F)(F)CNC(=O)c2c(Oc3cccc(C(F)(F)F)c3)cnc3ccccc23)c(C)c1` [I-039, N-[2-(2,4-dimethylphenyl)-2,2-difluoro-ethyl]-3-[3-(trifluoro-methyl)phenoxy]quinoline-4-carboxamide], in data set [1], the chromatographic logP was 4.46. Moreover, the pest or weed control at 500 ppm in data set [3] and in data set [7] was 90 to 100% in each case. Moreover, the inhibition at 20 ppm in data set [8] and in data set [6] was 90 to 100% each time.
`O=C(NCCc1ccc2c(c1)OCO2)c1c(Oc2cccc(C(F)(F)F)c2)nnc2ccccc12` [I-092]: the chromatographic logP in data set [1] worked out at 3.45. The pest or weed control at 500 ppm in data set [2] and in data set [3] was 90 to 100% in each case. In addition, the inhibition at 20 ppm in data set [8], in data set [4], in data set [5] and in data set [6] was 90 to 100% in each case.
`COc1ccc(CCN(C(C)=O)C(=O)c2c(Oc3cccc(C(F)(F)F)c3)nnc3ccccc23)cc1` [I-090] returned a chromatographic logP in data set [1] of 4.32. The pest or weed control at 500 ppm in data set [2] and in data set [3] was 90 to 100% throughout. In addition, the results for the inhibition at 20 ppm in data set [4], in data set [5] and in data set [6] were 90 to 100%, 90 to 100% and 80 to 89%, respectively.
The molecule `C[C@H](NC(=O)c1c(Oc2cncc(C(F)(F)F)c2)nnc2ccccc12)c1cccc(C(F)(F)F)c1` (racemic) [I-028] gave a chromatographic logP in data set [1] of 3.57. Further, the pest or weed control at 500 ppm in data set [3] and in data set [7] was 90 to 100% in each case. Also, the inhibition at 20 ppm in data set [6] lay within 80 to 89%.
`O=C(NCCn1cc(Cl)cn1)c1c(Oc2cccc(C(F)(F)F)c2)nnc2ccccc12` [I-244] yielded a chromatographic logP in data set [1] of 3. Further, the pest or weed control at 500 ppm was 90 to 100% in data set [2] and 80 to 89% in data set [3]. Besides, the inhibition at 20 ppm in data set [8], in data set [4], in data set [5] and in data set [6] was 90 to 100% in each case.
As to `O=C(NCC(F)(F)c1ccccc1Cl)c1c(Oc2cccc(C(F)(F)F)c2)nnc2ccccc12` [I-214], the chromatographic logP in data set [1] was found to be 4.12. For the same molecule, the pest or weed control at 500 ppm in data set [2] and in data set [3] was 90 to 100% throughout. The inhibition at 20 ppm in data set [8], in data set [4], in data set [5] and in data set [6] was 90 to 100% throughout.
As to `CC(=O)c1ccc(C(F)(F)CNC(=O)c2c(Oc3cccc(C(F)(F)F)c3)nnc3ccccc23)c(Cl)c1` [I-069], the chromatographic logP in data set [1] stood at 3.84. Moreover, the pest or weed control at 500 ppm in data set [2] and in data set [3] was 90 to 100% each time. Further, the inhibition at 20 ppm is 80 to 89% in data set [8], 90 to 100% in data set [4], 90 to 100% in data set [5] and 70 to 79% in data set [6].
`Cc1cccc2c1OCC[C@@H]2NC(=O)c1c(Oc2cccc(C(F)(F)F)c2)nnc2ccccc12` (racemic) [I-082] yielded a chromatographic logP in data set [1] of 4.07. Besides, the pest or weed control at 500 ppm in data set [2] and in data set [3] was 90 to 100% in each case. The inhibition at 20 ppm in data set [8], in data set [4], in data set [5] and in data set [6] was 90 to 100% each time.
As for `O=C(NCCc1cccs1)c1c(Oc2cccc(C(F)(F)F)c2)nnc2ccccc12` [I-237], in data set [1], the chromatographic logP worked out at 3.53. Moreover, the pest or weed control at 500 ppm in data set [2] is 90 to 100%; in data set [3] it was 70 to 79%. Besides, the inhibition at 20 ppm in data set [8] lay in the range of 90 to 100%; in data set [4], 90 to 100%; in data set [5], 90 to 100%; in data set [6], 80 to 89%.
